The source of these data is patent publication US20250243488A1, “METHODS OF MODULATING PROGRANULIN EXPRESSION USING ANTISENSE OLIGONUCLEOTIDES TARGETING REGULATORY RNAS” (Camp4 Therapeutics Corporation, priority 2022, published 2025).

The subject of the series is mGrn mRNA. Description: mGrn mRNA qPCR in Neuro2a cells transfected with ASOs. Format: cell-based, mouse. The conditions noted are these: Table 14; Neuro2a, 100 nM, 48 hours; normalized to sNTC3. Here is the method: 57 ASOs targeting the Grn promoter (− strand) were screened in Neuro2a cells. Neuro2a cells were transfected with 100 nM of each of the ASOs listed in Table 14 and cells were harvested 48 hours later for Grn mRNA quantification using qPCR. Housekeeping genes for normalization were Gapdh and Ppia. Relative Grn mRNA levels were normalized to mRNA extracted from cells treated with sNTC3 (steric nontargeting control).
Next, 26 ASOs based on parent ASOs CO-3544 and CO-3595 were designed with different modifications and base walking. Neuro2a cells were transfected with either […] or 160 nM of each of the ASOs listed in Table 15, and cells were harvested 48 hours later for mGrn mRNA quantification using qPCR. As controls, cells were treated with sNTC3 or no ASO. Housekeeping genes for normalization were Gapdh and Ppia. Relative Grn mRNA levels were normalized to mRNA extracted from cells treated with sNTC3.
CO-3544 was modified to include PO/PS bonds and the efficacy in upregulating mGrn mRNA was determined.
Similarly, CO-3595 was modified to include varying PO/PS internucleotide bonds and the efficacy of these ASOs in upregulating mGrn mRNA was determined in Neuro2A cells.
For orientation: Quantitative PCR measures a nucleic acid by following its amplification.

Oligonucleotides are written 5' to 3', each unit as a sugar letter and its base; * is a phosphorothioate linkage, no mark a phosphodiester; rarer units and linkages stand in square brackets, end groups in braces. Plain capitals give the bases only. e = 2'-O-(2-methoxyethyl) (MOE); [5mC] = 5-methylcytosine

“CO-3554: ASO targeting the Grn promoter (− strand) (antisense eG*eG*e[5mC]*eT*e[5mC]*eT*eT*eT*e[5mC]*eT*e[5mC]*eT*eT*eT*e[5mC]*eG*eG*eA*e[5mC]*eG)”: the “mGRN mRNA FC” value stood at 1.2 FC. As to “CO-3555: ASO targeting the Grn promoter (− strand) (antisense e[5mC]*eT*e[5mC]*eT*eT*eG*eT*e[5mC]*e[5mC]*eG*eT*eA*e[5mC]*eT*eT*e[5mC]*e[5mC]*e[5mC]*eA*e[5mC])”, the “mGRN mRNA FC” value came out at 1.5 FC.

On to “CO-3556: ASO targeting the Grn promoter (− strand) (antisense eA*eG*eG*eA*e[5mC]*eA*eG*eG*eA*eA*e[5mC]*e[5mC]*eA*e[5mC]*e[5mC]*e[5mC]*e[5mC]*eA*e[5mC]*eT)”, for which the “mGRN mRNA FC” value was 1.3 FC.

For the substance “CO-3557: ASO targeting the Grn promoter (− strand) (antisense eT*eG*eT*e[5mC]*eG*eG*eA*eA*eA*eG*e[5mC]*eT*eG*e[5mC]*eA*eG*eG*e[5mC]*e[5mC]*eT)”, the “mGRN mRNA FC” value was determined as 1.6 FC. Regarding “CO-3558: ASO targeting the Grn promoter (− strand) (antisense eT*e[5mC]*e[5mC]*e[5mC]*e[5mC]*e[5mC]*e[5mC]*e[5mC]*eA*eA*eT*eA*eA*eG*eA*eG*eG*e[5mC]*eT*eT)”, the “mGRN mRNA FC” value is listed as 1.2 FC. Consider “CO-3559: ASO targeting the Grn promoter (− strand) (antisense eG*eT*eT*eG*eT*eA*eG*eA*eG*eA*e[5mC]*eA*e[5mC]*e[5mC]*eT*e[5mC]*e[5mC]*e[5mC]*e[5mC]*eG)”, for which the “mGRN mRNA FC” value is recorded as 1.4 FC. Turning to “CO-3560: ASO targeting the Grn promoter (− strand) (antisense eT*eG*eA*eT*eG*e[5mC]*eA*e[5mC]*eT*eA*eA*e[5mC]*eG*eA*eG*eG*eT*eT*eG*eT)”, the “mGRN mRNA FC” value was determined as 1.2 FC.

Consider “CO-3561: ASO targeting the Grn promoter (− strand) (antisense e[5mC]*e[5mC]*eT*e[5mC]*eT*eT*eG*eA*eA*eA*e[5mC]*eT*e[5mC]*e[5mC]*e[5mC]*e[5mC]*eT*eA*eGeG)”, for which the “mGRN mRNA FC” value is 1.3 FC. As for “CO-3562: ASO targeting the Grn promoter (− strand) (antisense eG*e[5mC]*e[5mC]*eT*eG*eT*eG*e[5mC]*eA*eA*eT*eT*eG*eA*eGeG*eG*eT*e[5mC]*e[5mC])”, the “mGRN mRNA FC” value stood at 1.1 FC. For “CO-3563: ASO targeting the Grn promoter (− strand) (antisense eG*e[5mC]*eA*eG*eA*e[5mC]*eA*eA*eT*e[5mC]*eT*e[5mC]*e[5mC]*e[5mC]*e[5mC]*eG*eG*e[5mC]*eT*eA)”, the “mGRN mRNA FC” value is on record as 1.5 FC. “CO-3564: ASO targeting the Grn promoter (− strand) (antisense eA*e[5mC]*eG*e[5mC]*eA*eG*eG*eT*eA*eG*eG*eA*eG*eG*eA*e[5mC]*e[5mC]*e[5mC]*eT*e[5mC])”: the “mGRN mRNA FC” value amounted to 1.1 FC. “CO-3565: ASO targeting the Grn promoter (− strand) (antisense eG*eA*eG*e[5mC]*eT*eG*eA*e[5mC]*e[5mC]*eG*e[5mC]*e[5mC]*eA*eG*eA*eT*eG*e[5mC]*e[5mC]*eT)”: the “mGRN mRNA FC” value came out at 1.6 FC. As for “CO-3566: ASO targeting the Grn promoter (− strand) (antisense eG*e[5mC]*eT*eA*eA*eT*eG*eG*eA*eA*eA*eT*eT*eG*eA*eG*eG*eT*eG*eG)”, the “mGRN mRNA FC” value is reported as 1.1 FC. Regarding “CO-3567: ASO targeting the Grn promoter (− strand) (antisense e[5mC]*e[5mC]*e[5mC]*eT*eG*eG*eA*eT*e[5mC]*eT*e[5mC]*e[5mC]*eG*eA*eG*e[5mC]*eA*eA*eT*eG)”, the “mGRN mRNA FC” value is 1.1 FC. Take “CO-3568: ASO targeting the Grn promoter (− strand) (antisense e[5mC]*e[5mC]*eG*e[5mC]*e[5mC]*eT*e[5mC]*eT*eA*e[5mC]*eG*eT*eA*eG*eA*e[5mC]*eA*eA*eG*eT)”: the “mGRN mRNA FC” value worked out at 1.2 FC. Then “CO-3569: ASO targeting the Grn promoter (− strand) (antisense eG*eG*eA*eA*eT*eG*eT*eG*eA*eA*e[5mC]*eT*eG*eA*eG*eT*eA*eG*eA*eA)”, with 1.2 FC. The figure for “CO-3570: ASO targeting the Grn promoter (− strand) (antisense e[5mC]*eT*eA*eA*eT*e[5mC]*eA*e[5mC]*eA*eT*eG*eA*eT*e[5mC]*e[5mC]*e[5mC]*eT*eA*eG*eA)” is 1.2 FC.

In the case of “CO-3571: ASO targeting the Grn promoter (− strand) (antisense eG*e[5mC]*eT*eA*eT*eG*eT*eT*eG*eT*e[5mC]*eA*eT*eA*eT*eG*eA*eT*eT*e[5mC])”, the “mGRN mRNA FC” value was 1.4 FC. For the substance “CO-3572: ASO targeting the Grn promoter (− strand) (antisense eG*e[5mC]*e[5mC]*eG*e[5mC]*e[5mC]*eA*eG*eA*eA*e[5mC]*e[5mC]*e[5mC]*eA*eA*eA*e[5mC]*e[5mC]*eA*eG)”, the “mGRN mRNA FC” value worked out at 1.3 FC. The figure for “CO-3573: ASO targeting the Grn promoter (− strand) (antisense eG*eT*e[5mC]*eT*e[5mC]*eA*eT*e[5mC]*eT*e[5mC]*eT*eG*e[5mC]*eA*eA*e[5mC]*eA*e[5mC]*eT*e[5mC])” is 1.4 FC; for “CO-3574: ASO targeting the Grn promoter (− strand) (antisense eG*e[5mC]*eT*e[5mC]*eT*e[5mC]*e[5mC]*eT*eA*eA*e[5mC]*eT*eG*eT*eG*eG*eG*eT*eG*e[5mC])” it is 1.3 FC.

On to “CO-3575: ASO targeting the Grn promoter (− strand) (antisense eG*eT*eA*eA*eA*e[5mC]*eG*eA*e[5mC]*e[5mC]*eT*eT*eG*eA*eA*e[5mC]*eG*e[5mC]*eG*eT)”, for which the “mGRN mRNA FC” value amounted to 1.2 FC. Take “CO-3576: ASO targeting the Grn promoter (− strand) (antisense eA*eT*eG*eT*eA*e[5mC]*eA*eA*eA*eA*eG*eT*e[5mC]*e[5mC]*e[5mC]*eG*eA*eT*e[5mC]*e[5mC])”: the “mGRN mRNA FC” value was 1.2 FC. On to “CO-3577: ASO targeting the Grn promoter (− strand) (antisense e[5mC]*eT*eG*e[5mC]*e[5mC]*eA*eG*eG*e[5mC]*eG*eT*eG*eA*eA*eG*eA*eG*eA*e[5mC]*eA)”, for which the “mGRN mRNA FC” value is listed as 1.1 FC. Regarding “CO-3578: ASO targeting the Grn promoter (− strand) (antisense eT*eT*e[5mC]*e[5mC]*eA*eA*e[5mC]*eT*eG*eG*eT*eT*eT*e[5mC]*eG*eA*eG*eT*e[5mC]*e[5mC])”, the “mGRN mRNA FC” value was 1.0 FC.

As to “CO-3579: ASO targeting the Grn promoter (− strand) (antisense eG*eA*e[5mC]*eT*eA*eT*eT*eT*eA*eT*e[5mC]*eT*eT*e[5mC]*eA*e[5mC]*e[5mC]*e[5mC]*eT*e[5mC])”, the “mGRN mRNA FC” value came to 1.2 FC. Take “CO-3580: ASO targeting the Grn promoter (− strand) (antisense eG*e[5mC]*e[5mC]*eA*e[5mC]*eT*e[5mC]*eT*e[5mC]*e[5mC]*e[5mC]*e[5mC]*eA*eT*eT*e[5mC]*eA*eA*eA*e[5mC])”: the “mGRN mRNA FC” value is given as 1.2 FC. The figure for “CO-3581: ASO targeting the Grn promoter (− strand) (antisense e[5mC]*eG*e[5mC]*e[5mC]*e[5mC]*eT*eT*eG*eA*eA*e[5mC]*e[5mC]*eT*eT*eT*eA*eT*eT*eA*eG)” is 1.1 FC.

As to “CO-3582: ASO targeting the Grn promoter (− strand) (antisense e[5mC]*eA*e[5mC]*eA*eT*e[5mC]*eT*eA*e[5mC]*eA*eG*eT*eG*e[5mC]*e[5mC]*e[5mC]*eG*eG*eT*eA)”, the “mGRN mRNA FC” value was 1.1 FC.

As to “CO-3583: ASO targeting the Grn promoter (− strand) (antisense eT*e[5mC]*e[5mC]*e[5mC]*e[5mC]*e[5mC]*e[5mC]*eA*eG*eT*eT*eT*eG*eA*eG*e[5mC]*e[5mC]*eA*eA*eT)”, the “mGRN mRNA FC” value is recorded as 1.2 FC.

As for “CO-3584: ASO targeting the Grn promoter (− strand) (antisense eG*e[5mC]*eT*eT*e[5mC]*eA*eA*eT*eT*eT*eA*eA*eT*eG*e[5mC]*eA*eG*eT*eG*e[5mC])”, the “mGRN mRNA FC” value was determined as 1.1 FC.

For “CO-3585: ASO targeting the Grn promoter (− strand) (antisense eG*eT*e[5mC]*e[5mC]*e[5mC]*eA*e[5mC]*e[5mC]*eT*eT*eA*eT*e[5mC]*eA*eG*e[5mC]*e[5mC]*eT*e[5mC]*eT)”, the “mGRN mRNA FC” value is 1.7 FC. As for “CO-3586: ASO targeting the Grn promoter (− strand) (antisense eA*eA*eT*e[5mC]*eT*eA*eG*eT*eT*eT*e[5mC]*eA*eA*eG*eT*eT*e[5mC]*e[5mC]*eT*e[5mC])”, the “mGRN mRNA FC” value is reported as 1.4 FC.

For “CO-3587: ASO targeting the Grn promoter (− strand) (antisense eT*eA*e[5mC]*e[5mC]*e[5mC]*eA*eA*eG*eG*eA*eA*eA*eG*eG*eA*eT*eT*e[5mC]*eA*e[5mC])”, the “mGRN mRNA FC” value was found to be 1.9 FC. With “CO-3588: ASO targeting the Grn promoter (− strand) (antisense eG*eT*e[5mC]*eT*eG*eT*eA*eA*eA*eG*eA*eA*e[5mC]*eA*eA*eG*eA*eT*eA*eT)”, the “mGRN mRNA FC” value was 0.9 FC.
